According to patent US20130209386A1, “NEW USES” (EVOCUTIS PLC, priority 2010, published 2013):
≈ marks a conversion by molar mass, not a printed value. Where “and” joins values, the source holds several entries; their conditions need not be identical. Equal entries are not always repeated. Where two headings read alike, the source gives them in different places. Marks after values point to notes of the source that are not given here.

Legend:
[1] = system: Propionibacterium acnes NCTC 737; assay: Minimum biocidal concentration (MBC) assay; assay type: cell-based
Procedure: (§1) The first test organism used was Propionibacterium acnes NCTC 737. This is a propionibacterial strain and is the type strain of the genus; it is fully susceptible to antibiotics. The propionibacteria are clinically significant due to their involvement in acne. They are also opportunistic pathogens in compromised hosts. Activity observed against these micro-organisms is expected to be a good predictor of activity against acne.
(§2) The propionibacteria were cultured and maintained on Wilkins-Chalgren Anaerobe Medium (agar and broth) at pH 6.0; all cultures were incubated anaerobically at 37° C. for 72 hours.
(b) Minimum Biocidal Concentration (MBC) Assay
This assay, normally carried out after an MIC assay, determines the minimum concentration of a compound that is lethal to the micro-organism being tested.
(§3) These samples were then individually sub-cultured on antibiotic-free agar medium, under the incubation conditions described above. Following incubation they were examined visually for microbial growth.

[2] = system: Propionibacterium acnes NCTC 737; assay: Disc diffusion assay (DDA) and synergy disc diffusion assay (SDDA); assay type: cell-based
Procedure: (c) Disc Diffusion Assay (DDA)
This is an internationally recognised standard method for qualitatively assessing the antimicrobial activity of a compound or combination of compounds.
A sterile paper disc was impregnated with a sample of the test compound(s) in a suitable solvent (or applied neat) and 30 minutes allowed for any of the solvents to evaporate (where possible). The disc was then placed on an agar plate onto which the test micro-organism had been inoculated. The plate was then incubated under the conditions described above, following which it was examined visually for signs of microbial growth. […] The diameter of this zone of “inhibition” was measured using a ProtoCOL™ automated zone sizer (Synbiosis, Cambridge, UK).
(d) Synergy Disc Diffusion Assay (SDDA)
This is a variation on the DDA method, in which two compounds are tested together for their combined antimicrobial activity.
Two test compounds A and B were placed on a single paper disc and the above described DDA procedure repeated.
The two compounds were then subjected in combination to the SDDA assay described above.
MIC/MBC experiments were performed in duplicate and (S)DDA experiments in triplicate.
The tropolone was dissolved in ethanol.

P. acnes NCTC 737 [3] = assay: Fixed ratio combination MIC/MBC assays; assay type: cell-based, Propionibacterium acnes
Procedure: (§4) (g) Fixed Ratio Combination MIC/MBC Assays
(§5) This method used a sterile 96-well microtitre plate, capable of holding about 200 μl of liquid per well. The wells contained liquid culture medium and ranges of decreasing concentrations of the relevant test compounds alone in doubling dilutions (eg 1000, 500, 250, 125 . . . μg/ml, etc. down to 0.49 μg/ml) or doubling dilutions of a combination of two compounds mixed initially at a fixed concentration ratio (based on molarity in this instance). The culture medium was as described above.
(§6) The wells were inoculated with a liquid suspension of freshly grown micro-organism and incubated under the conditions described above. After incubation, the microtitre plate was examined visually (with the aid of a light box) for cloudiness in each well, which would indicate microbial growth. The MIC value was recorded as the lowest concentration of test compounds alone or concentrations of the mixture of the two test compounds required to inhibit microbial growth, ie the liquid in the well remained clear.
(§7) The assays were conducted in triplicate and included both negative (culture medium with no micro-organisms) and positive (culture medium plus diluting solvent(s) plus micro-organism) controls.
as §3
(§8) Thus for each mixture tested, the FIC for compound A (FICA)=MIC for (A+B)/MIC for A alone. Similarly the FIC for compound B (FICB)=MIC for (A+B)/MIC for B alone. The overall FICI=FICA+FICB.
(§9) FBC & FBCI were calculated in the same manner using recorded MBC values.

C. striatum NCTC 764 = assay: Fixed ratio combination MIC/MBC assays; assay type: cell-based, Corynebacterium striatum
Procedure: The second test organism used was Corynebacterium striatum NCTC 764. This is a Gram-positive bacterium which is closely related to organisms (aerobic diphtheroids of the genus Corynebacterium) that cause body odour (Guillet et al, Eur J Dermatol, 2000 Jan-Feb, 10(1): 41-2). The C. striatum was cultured and maintained on Mueller-Hinton Medium (agar and broth) at pH 7.3 (±0.1); cultures were incubated aerobically at 37° C. for 18-24 hours.
as §4, §5, §6, §7, §3, §8, §9

[4] = system: Propionibacterium acnes NCTC 737; assay: Minimum inhibitory concentration (MIC) assay; assay type: cell-based
Procedure: as §1, §2
(a) Minimum Inhibitory Concentration (MIC) Assay
This is a standard international method for quantitatively assessing the antimicrobial activity of a compound in a liquid medium. The method used a sterile 96-well microtitre plate, capable of holding about 200 μl of liquid per well. The wells contained liquid culture medium and ranges of decreasing concentrations of the relevant test compound in doubling dilutions (eg 1000, 500, 250, 125 . . . μg/ml, etc, down to 0.49 μg/ml). The culture media were as described above.
as §6, with “of test compound required to” for “of test compounds alone or concentrations of the mixture of the two test compounds required to”, “ie the lowest concentration for which the liquid in” for “ie the liquid in”
The assays included both negative (culture medium with no micro-organisms) and positive (culture medium plus diluting solvent plus micro-organism) controls.

P. acnes NCTC 737 [5] = assay: Synthetic sebum time-to-kill assay; assay type: cell-based, Propionibacterium acnes; conditions: copper sulphate 97.5 mg/L, tropolone 195 mg/L; for Log10 change: T0 to T4 hours; for Log10 cfu/ml (T4 hours): after 4 hours, lowest detectable level 3.0; for Log10 cfu/ml (T0 hours): start count
Procedure: (f) Synthetic Sebum Time-to-Kill Assay This quantitative assay was designed to assess the level of kill of a P. acnes culture in a synthetic sebum (non-aqueous environment) over a defined time period (in this case 4 hours). A culture of P. acnes NCTC 737 was inoculated into a synthetic sebum (a liquid mixture of lipid components designed to simulate human sebum) containing the relevant test compound dissolved in 1-octanol. […] The plates were then incubated as described above and subsequently examined visually for growth. The numbers of viable microbial colonies on the plates were counted with the aid of a colony counter and converted to colony-forming units per ml (cfu/ml) using the appropriate dilution factor. Cell counts conducted in the absence of test compound acted as positive controls. Mixtures of tropolone and copper (II) sulphate, containing various relative proportions of the two actives, were subjected to synthetic sebum time-to-kill assays against P. acnes NCTC 737, as described above. All assays were conducted in triplicate.

Row | Structure (SMILES) | MBC [1] [µg/mL] | MIC/MBC ratio [1] | (S)DDA with tropolone [2] [mm] | DDA zone of inhibition diameter [2] [mm] | SDDA area increase [2] [%] | SDDA increase [2] [mm] | MBC (P. acnes NCTC 737 [3]; compound alone) | MIC (P. acnes NCTC 737 [3]; compound alone) | MBC (C. striatum NCTC 764) | MIC (C. striatum NCTC 764) | MIC [4] [µg/mL] | Log10 change (P. acnes NCTC 737 [5]) [Log10] | Log10 cfu/ml (T4 hours) (P. acnes NCTC 737 [5]) [Log10 cfu/ml] | Log10 cfu/ml (T0 hours) (P. acnes NCTC 737 [5]) [Log10 cfu/ml] | further results
1 | CC(=O)[O-].[Cu+] [Copper (I) acetate] | 31.25 | 0.25 | 32.35 | 32.14 | 1.29 | 0.21 | 23.3 µg/mL | 23.3 µg/mL | >62.8** μg/ml | >62.8** μg/ml | 7.8 |  |  |  | 
2 | O.O.O.O.O.O=S(=O)([O-])[O-].[Cu+2] [Copper sulphate, copper (II) sulphate pentahydrate] | 125 | 0.125 |  |  |  |  | >40.9** μg/ml and 60.8 μg/ml | 20.4 µg/mL and 30.4 µg/mL | >40.9** μg/ml | >40.9** μg/ml | 15.6 | −1.53 | 6.58 | 8.11 | (S)DDA zone of inhibition diameter [2]: 17.3 (±2.59) mm
3 | O=c1cccccc1O [Tropolone, 2-hydroxy-2,4,6-cycloheptatrien-1-one] |  |  |  |  |  |  |  | 62.5 µg/mL |  |  |  | −0.31 | 7.8 | 8.11 | MBC ([1]; Cutibacterium acnes, NCTC737, P. acnes NCTC 737, compound alone, read-out: MBC): 250 µg/mL (≈ 2050 µM); MIC/MBC ratio ([1]; P. acnes NCTC 737, compound alone): 0.06; zone of inhibition at 200 µg/disc ([2]; Cutibacterium acnes, NCTC737, 200 μg tropolone and/or 12.5 μg copper sulphate per disc, read-out: (S)DDA zone of inhibition diameter): 19.1 mm; zone of inhibition at 12.5 µg/disc ([2]; Cutibacterium acnes, NCTC737, compound alone, 12.5 μg per disc (gluconate, picolinate 25 μg; silicate 12.4 μg; chlorophyllin 200 μg), read-out: DDA zone of inhibition diameter): 13.2 mm; MBC (P. acnes NCTC 737 [3]; Cutibacterium acnes, NCTC737, compound alone, read-out: MBC): > 62.5 µg/mL; MIC (P. acnes NCTC 737 [3]; Cutibacterium acnes, NCTC737, compound alone, read-out: MIC): 31.2 µg/mL; MBC (C. striatum NCTC 764; C. striatum NCTC 764, compound alone): 62.5 µg/mL; MBC (C. striatum NCTC 764; Corynebacterium striatum, NCTC764, C. striatum NCTC 764, compound alone, read-out: MBC): > 62.5 µg/mL; MIC ([4]; Cutibacterium acnes, NCTC737, P. acnes NCTC 737, compound alone, read-out: MIC): 15.6 µg/mL (≈ 128 µM)
4 | CC(=O)[O-].CC(=O)[O-].[Cu+2] [Copper (II) acetate] | 125 | 0.03 | 30.80 | 25.63 | 44.39 | 5.17 | 46 µg/mL and 34.6 µg/mL |  | >46.5** μg/ml | >46.5** μg/ml | 3.9 |  |  |  | 
